Source: US6479531B1, “Gastrin and cholecystokinin receptor ligands” (James Black Foundation Limited, priority 1998, dated 2002)

Molecular target: T1, CCKB receptor (Mus musculus, UniProt P56481)
T1 construct: The whole brains from male mice (CD1 22-25 g; Charles River) were removed; from tissue; host or cells: cerebral cortex membranes of male CD1 mice
T1 sequence (P56481 1-453): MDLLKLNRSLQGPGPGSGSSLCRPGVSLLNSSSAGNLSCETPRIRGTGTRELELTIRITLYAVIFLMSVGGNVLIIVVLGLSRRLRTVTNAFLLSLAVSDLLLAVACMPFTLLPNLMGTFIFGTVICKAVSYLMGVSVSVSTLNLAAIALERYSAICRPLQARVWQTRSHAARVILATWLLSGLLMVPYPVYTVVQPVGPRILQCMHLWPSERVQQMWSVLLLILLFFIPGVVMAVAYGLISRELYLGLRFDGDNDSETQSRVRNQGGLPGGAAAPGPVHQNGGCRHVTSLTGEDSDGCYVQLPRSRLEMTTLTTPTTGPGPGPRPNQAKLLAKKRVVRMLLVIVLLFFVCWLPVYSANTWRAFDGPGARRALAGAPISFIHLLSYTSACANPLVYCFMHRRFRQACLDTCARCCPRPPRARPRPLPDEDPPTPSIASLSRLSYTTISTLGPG
Assay: CCKB receptor radioligand binding assay in mouse cortical membranes
Settings: [125I]-CCK8(S) 200 pM, 150 min at 21±3°, read-out: CCKB pKi (converted)
Method: The compounds of the examples were tested for binding at the CCKB receptor in mouse cortical membranes by means of a radioligand binding assay. The procedure was as follows:
The whole brains from male mice (CD1 22-25 g; Charles River) were removed and placed in ice-cold buffer (pH 7.2 @ 21±3°) of the following composition (mM); 10 HEPES, 130 NaCl, 4.7 KCl, 5 MgCl2, 1 EDTA and containing 0.25 gl^−1 bacitracin. The cortex was dissected, weighed and homogenised in 40 ml ice-cold buffer using a Teflon-in-glass homogeniser. The homogenate was centrifuged at 39800 g for 20 min […], the supernatant discarded and the pellet resuspended by homogenisation in fresh buffer. The homogenate was recentrifuged (39800 g, 20 min @ 4°) and the final pellet was resuspended in HEPES buffer to give a tissue concentration of 20 mg ml^−1 (original wet weight).
The assay was terminated by rapid filtration through pre-soaked Whatman GF/B filters using a Brandell Cell Harvester. The filters were washed (3×3 ml) with ice-cold 50 mM Tris-HCl (pH 7.4 @ 4° C.) and bound radioactivity determined by counting (1 min) in a gamma-counter.

Compound | Ki [nM]
O=C(O)c1cccc(NC(=O)c2nc(C(C3CCCCC3)C3CCCCC3)[nH]c2CCC23CC4CC(CC(C4)C2)C3)c1 [Example 128, 3-{[5-(2-Adamanatan-1-yl-ethyl)-2-dicyclohexylmethyl-1H-imidazole-4-carbonyl]-amino}-benzoic Acid] | 2140
O=C(Nc1cc(-c2nnn[nH]2)cc(-c2nnn[nH]2)c1)c1cc(-c2ccccc2)[nH]c1CCC12CC3CC(CC(C3)C1)C2 [Example 18, 2-(2-Adamantan-1-yl-ethyl)-5-phenyl-1H-pyrrole-3-carboxylic Acid [3,5-bis-(1H-tetrazol-5-yl)-phenyl]-amide] | 229
Cc1ccccc1-c1nc(C(=O)Nc2ccc(CC(=O)O)cc2)c(CCC23CC4CC(CC(C4)C2)C3)[nH]1 [Example 99] | 186
Cc1ccccc1-c1nc(C(=O)NC(C(=O)O)c2ccccc2)c(CCC23CC4CC(CC(C4)C2)C3)[nH]1 (stereo not shown) [Example 102, {[5-(2-Adamantan-1-yl-ethyl)-2-o-tolyl-1H-imidazole-4-carbonyl]-amino}-phenyl-acetic Acid] | 776
CN(C)c1ccccc1-c1nc(C(=O)Nc2cccc(C(=O)O)c2)c(CCC23CC4CC(CC(C4)C2)C3)[nH]1 [Example 70, 3-{[5-(2-Adamantan-1-yl-ethyl)-2-(2-dimethylamino-phenyl)-1H-imidazole-4-carbonyl]-amino}-benzoic Acid] | 245
O=C(O)c1cccc(NC(=O)c2nc(C3CCCCCCCCCCC3)[nH]c2CCC23CC4CC(CC(C4)C2)C3)c1 [Example 127, 3-{[5-(2-Adamantan-1-yl-ethyl)-2-cyclododecyl-1H-imidazole-4-carbonyl]-amino}-benzoic Acid] | 1700
Cc1ccccc1-c1nc(C(=O)N2CCC(C(=O)O)CC2)c(CCC23CC4CC(CC(C4)C2)C3)[nH]1 (racemic) [Example 94, (±)-1-[5-(2-Adamantan-1-yl-ethyl)-2-o-tolyl-1H-imidazole-4-carbonyl]-piperidine-4-carboxylic Acid] | 5370
Cc1ccccc1-c1nc(C(=O)Nc2ccc(C)c(C(=O)O)c2C)c(CCC23CC4CC(CC(C4)C2)C3)[nH]1 [Example 240, 3-{[5-(2-Adamantan-1-yl-ethyl)-2-o-tolyl-1H-imidazole-4-carbonyl]-amino}-2,6-dimethyl-benzoic Acid] | 26.3
Cc1ccccc1-c1nc(C(=O)N2CCC[C@H]2C(=O)O)c(CCC23CC4CC(CC(C4)C2)C3)[nH]1 [Example 95, (2S)-1-[5-(2-Adamantan-1-yl-ethyl)-2-o-tolyl-1H-imidazole-4-carbonyl]-pyrrolidine-carboxylic Acid] | 2510
O=C(O)c1cc(NC(=O)c2nc(-c3cccc4ccccc34)[nH]c2CC2CCCCCC2)cc(C(=O)O)c1 [Example 23, 5-[(5-Cycloheptylmethyl-2-naphthalen-1-yl-1H-imidazole-4-carbonyl)-amino]-isophthalic Acid] | 1230
O=C(O)c1ccccc1NC(=O)c1cc(-c2ccccc2)[nH]c1CC12CC3CC(CC(C3)C1)C2 [Example 6, 2-[(2-Adamantan-1-ylmethyl-5-phenyl-1H-pyrrole-3-carbonyl)-amino]-benzoic Acid] | 832
O=C(Nc1cc(-c2nnn[nH]2)cc(-c2nnn[nH]2)c1)c1cc(-c2ccccc2)[nH]c1CC12CC3CC(CC(C3)C1)C2 [Example 2, 2-Adamantan-1-ylmethyl-5-phenyl-1H-pyrrole-3-carboxylic Acid [3,5-bis-(1H-tetrazol-5-yl)-phenyl]-amide] | 49
Cc1ccc(C(=O)O)cc1NC(=O)c1nc(-c2ccccc2C)[nH]c1CCC12CC3CC(CC(C3)C1)C2 [Example 239, 3-{[5-(2-Adamantan-1-yl-ethyl)-2-o-tolyl-1H-imidazole-4-carbonyl]-amino}-4-methyl-benzoic Acid] | 2000
Cc1ccccc1-c1nc(CCc2cccc(C(=O)O)c2)c(C(=O)NCC23CC4CC(CC(C4)C2)C3)[nH]1 [Example 119, 3-{2-[5-(Adamantan-1-ylmethylcarbamoyl)-2-o-tolyl-1H-imidazol-4-yl]-ethyl}-benzoic Acid] | 282
Cc1ccccc1-c1nc(C(=O)Nc2cc(C(=O)O)cc(C(F)(F)F)c2)c(CCC23CC4CC(CC(C4)C2)C3)[nH]1 [Example 243, 3-{[5-(2-Adamantan-1-yl-ethyl)-2-o-tolyl-1H-imidazole-4-carbonyl]-amino}-5-trifluoromethyl-benzoic Acid] | 537
O=C(O)c1ccc(NC(=O)c2nc(-c3ccccc3F)[nH]c2CCC23CC4CC(CC(C4)C2)C3)cc1 [Example 51, 4-{[5-(2-Adamantan-1-yl-ethyl)-2-(2-fluoro-phenyl)-1H-imidazole-4-carbonyl]-amino}-benzoic Acid] | 2630
Cc1ccc(NC(=O)c2c(CCC34CC5CC(CC(C5)C3)C4)nc(-c3ccccc3C)n2C)cc1C(=O)O [Example 162, 5-{[5-(2-Adamantan-1-yl-ethyl)-3-methyl-2-o-tolyl-3H-imidazole-4-carbonyl]-amino}-2-methyl-benzoic Acid] | 1660
Cc1ccccc1-c1nc(C(=O)Nc2cccc(C(=O)O)c2)c(CCC(C)(C)C)[nH]1 [Example 91, 3-{[5-(3,3-Dimethyl-butyl)-2-o-tolyl-1H-imidazole-4-carbonyl]-amino}-benzoic Acid] | 3800
O=C(O)Cc1cccc(NC(=O)c2nc(-c3ccccc3)[nH]c2CCC23CC4CC(CC(C4)C2)C3)c1 [Example 82, (3-{[5-(2-Adamantan-1-yl-ethyl)-2-phenyl-1H-imidazole-4-carbonyl]-amino}-phenyl)-acetic Acid] | 13.2
Cc1ccccc1-c1nc(C(=O)Nc2cc(C(=O)O)ccc2F)c(CCC23CC4CC(CC(C4)C2)C3)[nH]1 [Example 238, 3-{[5-(2-Adamantan-1-yl-ethyl)-2-o-tolyl-1H-imidazole-4-carbonyl]-amino}-4-fluoro-benzoic Acid] | 5890
Cc1ccc(NC(=O)c2nc(-c3c(Cl)cccc3Cl)[nH]c2CCC23CC4CC(CC(C4)C2)C3)cc1C(=O)O [Example 149, 5-{[5-(2-Adamantan-1-yl-ethyl)-2-(2,6-dichlorophenyl)-1H-imidazole-4-carbonyl]-amino}-2-methyl-benzoic Acid] | 5.37
O=C(O)c1ccc(NC(=O)c2cc(-c3ccccc3)[nH]c2CC23CC4CC(CC(C4)C2)C3)cc1 [Example 7, 4-[(2-Adamantan-1-ylmethyl-5-phenyl-1H-pyrrole-3-carbonyl)-amino]-benzoic Acid] | 646
COc1ccc(-c2nc(C(=O)Nc3cc(C(=O)O)cc(C(=O)O)c3)c(CC3CCCCCC3)[nH]2)cc1 [Example 29, 5-[(5-Cycloheptylmethyl-2-(4-methoxy-phenyl)-1H-imidazole-4-carbonyl)-amino]-isophthalic Acid] | 1480
Cc1ccccc1-c1nc(C(=O)N2CCCC(C(=O)O)C2)c(CCC23CC4CC(CC(C4)C2)C3)[nH]1 (racemic) [Example 93, (±)-1-[5-(2-Adamantan-1-yl-ethyl)-2-o-tolyl-1H-imidazole-4-carbonyl]-piperidine-3-carboxylic Acid] | 2510
Cc1ccccc1-c1nc(C(=O)Nc2cccc(OCC(=O)O)c2)c(CCC23CC4CC(CC(C4)C2)C3)[nH]1 [Example 98, (3-{[5-(2-Adamantan-1-yl-ethyl)-2-o-tolyl-1H-imidazole-4-carbonyl]-amino}-phenoxy)-acetic Acid] | 25.1
